Laboratory results reported in patent US8796264B2, “2-piperazin-1-yl-4H-1,3-benzothiazin-4-one derivatives and their use for the treatment of mammalian infections” (Ecole Polytechnique Federale de Lausanne (EPFL), priority 2010, dated 2014).
Values after ≈ are worked out from the molar mass of the structure shown.

Key:
M. tuberculosis H37Rv = experiment: In vitro inhibitory activity, resazurin reduction assay (MIC99); assay type: cell-based, Mycobacterium tuberculosis; conditions: Mycobacterium tuberculosis, H37RV; resazurin reduction assay (MIC99); read-out: typical MIC values, M. tuberculosis H37Rv
M. smegmatis = experiment: as above; assay type: cell-based, Mycobacterium smegmatis; conditions: Mycolicibacterium smegmatis, read-out: typical MIC values, M. smegmatis
[1] = tested on: Corynebacterium glutamicum ATCC13032; experiment: In vitro inhibitory activity against actinobacteria (MIC); assay type: cell-based; conditions: read-out: typical MIC values, Corynebacterium glutamicum ATCC13032

Row | Structure (SMILES) | MIC (M. tuberculosis H37Rv) | MIC (M. smegmatis) | melting point | MIC [1]
1 | O=c1nc(N2CCN(Cc3ccncc3)CC2)sc2c([N+](=O)[O-])cc(C(F)(F)F)cc12 [Compound 9, 8-nitro-2-[4-(pyridin-4-ylmethyl)piperazin-1-yl]-6-(trifluoromethyl)-4H-1,3-benzothiazin-4-one] | 0.015 mg/L (≈ 0.0332 µM) | 0.062 mg/L (≈ 0.137 µM) | 200 to 202 °C | 0.125 mg/L (≈ 0.277 µM)
2 | O=c1nc(N2CCN(CCCC3(c4ccc(F)cc4)OCCO3)CC2)sc2c([N+](=O)[O-])cc(C(F)(F)F)cc12 [Compound 17, 2-(4-{3-[2-(4-fluorophenyl)-1,3-dioxolan-2-yl]propyl}piperazin-1-yl)-8-nitro-6-(trifluoromethyl)-4H-1,3-benzothiazin-4-one] | 0.0375 mg/L (≈ 0.066 µM) | 0.00375 mg/L (≈ 0.0066 µM) | 152 to 154 °C | 0.25 mg/L (≈ 0.44 µM)
3 | CCCCCN1CCN(c2nc(=O)c3cc(C(F)(F)F)cc([N+](=O)[O-])c3s2)CC1 [Compound 12] | 0.00037 mg/L (≈ 0.00086 µM) | ≤ 0.0019 mg/L | 133 to 134 °C | 0.015 mg/L (≈ 0.0348 µM)
4 | CC(C)CN1CCN(c2nc(=O)c3cc(C(F)(F)F)cc([N+](=O)[O-])c3s2)CC1 [Compound 4] | ≤ 0.0019 mg/L | ≤ 0.0019 mg/L | 150 to 153 °C | 0.031 mg/L (≈ 0.0744 µM)
5 | COCCCN1CCN(c2nc(=O)c3cc(C(F)(F)F)cc([N+](=O)[O-])c3s2)CC1 [Compound 11, 2-[4-(3-methoxypropyl)piperazin-1-yl]-8-nitro-6-(trifluoromethyl)-4H-1,3-benzothiazin-4-one] | 0.00375 mg/L (≈ 0.00867 µM) | 0.031 mg/L (≈ 0.0717 µM) | 133 to 134 °C | 0.25 mg/L (≈ 0.578 µM)
6 | O=c1nc(N2CCN(CCCC3CCCCC3)CC2)sc2c([N+](=O)[O-])cc(Cl)cc12 [Compound 21, 6-chloro-2-[4-(3-cyclohexylpropyl)piperazin-1-yl]-8-nitro-4H-1,3-benzothiazin-4-one] | ≤ 0.0019 mg/L | ≤ 0.0019 mg/L | 194 to 195 °C | 0.062 mg/L (≈ 0.137 µM)
7 | O=c1nc(N2CCN(CCCOc3ccc(F)cc3)CC2)sc2c([N+](=O)[O-])cc(Cl)cc12 [Compound 20, 6-chloro-2-{4-[3-(4-fluorophenoxy)propyl]piperazin-1-yl}-8-nitro-4H-1,3-benzothiazin-4-one] | ≤ 0.0019 mg/L | ≤ 0.0019 mg/L | 192 to 194 °C | 0.0031 mg/L (≈ 0.00647 µM)
8 | O=c1nc(N2CCN(CCOCc3ccccc3)CC2)sc2c([N+](=O)[O-])cc(C(F)(F)F)cc12 [Compound 16, 2-{4-[2-(benzyloxy)ethyl]piperazin-1-yl}-8-nitro-6-(trifluoromethyl)-4H-1,3-benzothiazin-4-one] | 0.019 mg/L (≈ 0.0384 µM) | 0.031 mg/L (≈ 0.0627 µM) | 117 to 119 °C | < 0.5 mg/L
9 | O=c1nc(N2CCN(CCCC3CCCCC3)CC2)sc2c([N+](=O)[O-])cc(C(F)(F)F)cc12 [Compound 14, 2-[4-(3-cyclohexylpropyl)piperazin-1-yl]-8-nitro-6-(trifluoromethyl)-4H-1,3-benzothiazin-4-one] | ≤ 0.0019 mg/L | ≤ 0.0019 mg/L | 145 to 147 °C | 0.75 mg/L (≈ 1.55 µM)
10 | O=c1nc(N2CCN(CCCCOc3ccccc3)CC2)sc2c([N+](=O)[O-])cc(C(F)(F)F)cc12 [Compound 10, 8-nitro-2-[4-(4-phenoxybutyl)piperazin-1-yl]-6-(trifluoromethyl)-4H-1,3-benzothiazin-4-one] | 0.0015 mg/L (≈ 0.00295 µM) | ≤ 0.0019 mg/L | 256 to 258 °C | ≤ 0.0019 mg/L
11 | O=c1nc(N2CCN(C3CCCCC3)CC2)sc2c([N+](=O)[O-])cc(C(F)(F)F)cc12 [Compound 1, 2-(4-cyclonexylpiperazin-1-yl)-8-nitro-6-(trifluoromethyl)-4H-1,3-benzothiazin-4-one] | 0.00075 mg/L (≈ 0.0017 µM) | ≤ 0.17 mg/L | 189 to 191 °C | 
12 | CCCCN1CCN(c2nc(=O)c3cc(C(F)(F)F)cc([N+](=O)[O-])c3s2)CC1 [Compound 3, 2-(4-butylpiperazin-1-yl)-8-nitro-6-(trifluoromethyl)-4H-1,3-benzothiazin-4-one] | 0.0015 mg/L (≈ 0.0036 µM) | ≤ 0.17 mg/L | 119 to 120 °C | 
